Columns and labels:
[1] = system: sodium taurocholate-induced pancreatitis model; experiment: Improvement effect on pancreatitis, sodium taurocholate-induced model in mice; type: in vivo, Blab/c mice; parameters: Pancreatic histopathological injury score: scale not given here; details: 17.5 mg/kg caudal vein 1 h, 3 h and 6 h after model construction; after 24 hours; n = 10
Text: In this example, the improvement effect of compounds 1 19 prepared in example 1 on […] measured. (1) Animals: Adult and Healthy Male Blab/c Mice, 25 30 g. […] A model was made with sodium taurocholate. […] After anesthesia, the surgical site was sterilized with an alcohol cotton ball. The sterile gauze was placed on the surgical site. A laparotomy was made at the width of two fingers under the xiphoid process. After seeing the liver, an incision was made, the cotton swab soaked in normal saline was stretched into the enterocoelia, the duodenum was sought on the back of the liver, turned out and placed on the sterile gauze, the pancreaticobiliary duct and duodenal papilla were sought, and the needle of 1 mL syringe was used to pierce a hole on the along the direction of the nipple, a 24 G indwelling needle tube was inserted into the pancreatic duct along the nipple, and the common bile duct below the liver was closed with an arterial vascular clip, with a dose of 0.1 mL/100 g and 0.1 mL/min inject sodium taurocholate with a concentration of 3.8% at a flow rate. During this process, pay attention to adding saline to the exposed pancreas and duodenum to keep it moist. After the injection, the tube was slowly taken out and the bile duct was continued to be closed. The main tube was removed from the vascular artery clip 3 minutes later, the duodenum was also accommodated, and the abdominal cavity was sutured in double layers. The blank control group was injected with equal volume of isotonic saline. […] The blank control group and the model control group were given equal volume of isotonic saline. After 24 hours, pancreatic tissue and blood samples were taken, and the pancreatic histopathological injury score and the level of pancreatic amylase in serum were evaluated.

[2] = system: arthritis model; experiment: Improvement effect on arthritis, sodium iodoacetate knee joint model in SD rats; type: in vivo; parameters: Pathological tissue score (joint): scale not given here; details: gavage every day 100 mg/kg/d; 4th week after operation; n = 10
Method: In this example, the improvement effect of compounds 1˜19 prepared in example 1 on arthritic was measured. (1) Animals: SD rats, four rates in one cage, were fed under the conditions of constant temperature (25±2° C.) and illumination control (12 h day/night circulation). The animals were fed with standard feed, and fed for at least 7 days to adapt environment before the experiment. […] (3) SD rats were fasted for 12 hours before operation, and weighed and recorded prior to operation. The blank control group was not treated any more. […] After anesthesia, they were fixed in the supine position. 0.1 ml of 1 g/L sodium iodoacetate solution was injected into the knee joint. From the fifth day, the animals were driven to run for 30 minutes every day, and they were allowed to move freely in the cage the rest of the time. After modeling, indomethacin and compounds 1˜19 were given by gavage every day at the dose of 100 mg/kg/d. The blank control group and the model control group were given equal volume of isotonic saline. At the 4th week after operation, the articular fluid of rats in each group was extracted to measure the content of MMP-13. The rats were killed, and the subchondral bone plate of the inner condyle of the tibia of the right knee was cut and processed into specimens, and pathological scores were made.

[3] = system: mouse hepatitis model; experiment: Improvement effect on hepatitis, concanavalin A (ConA) mouse hepatitis model; type: in vivo, Blab/c mice; details: gavage 50 mg/kg, n = 10
Method: In this example, the improvement effect of compounds 1 19 prepared in example 1 on […] measured. (1) Animals: Adult and Healthy Male Blab/c Mice, 25 30 g. […] The blank control group was injected with equal volume of isotonic saline. After modeling, indomethacin and compounds 1 19 were given by gavage every day at the dose of 50 mg/kg. The blank control group and the model control group were given equal volume of isotonic saline. Eyeball blood and liver tissue were taken at 6 h, 12 h, 24 h and 48 h after administration. The levels of serum alanine aminotransferase (ALT) and aspartate aminotransferase (AST) were measured.

Structure (SMILES)	Amylopsin (pancreatic amylase level in serum) [1] [KU/L]	Pancreatic histopathological injury score [1]	MMP-13 content in joint fluid [2] [mg/L]	Pathological tissue score (joint) [2]	Aspartate aminotransferase (AST) ([3]; 6 h after administration) [U/L]	Serum alanine aminotransferase (ALT) ([3]; 6 h after administration) [U/L]	Aspartate aminotransferase (AST) ([3]; 12 h after administration) [U/L]	Serum alanine aminotransferase (ALT) ([3]; 12 h after administration) [U/L]	Aspartate aminotransferase (AST) ([3]; 24 h after administration) [U/L]	Serum alanine aminotransferase (ALT) ([3]; 24 h after administration) [U/L]	Aspartate aminotransferase (AST) ([3]; 48 h after administration) [U/L]	Serum alanine aminotransferase (ALT) ([3]; 48 h after administration) [U/L]
CC(C)n1c(=O)[nH]cc(F)c1=O [Compound 19, 3-isopropyl-5-fluorouracil]	8 ± 2	1.0 ± 0.3	89 ± 6	0.3 ± 0.2	57 ± 7	55 ± 6	92 ± 8	87 ± 6	117 ± 9	139 ± 12	101 ± 9	111 ± 13
CC(C)n1cnc2c(=O)[nH]cnc21 [Compound 6, 9-isopropyl hypoxanthine]	2 ± 1	0.4 ± 0.1	90 ± 8	0.3 ± 0.4	49 ± 7	56 ± 5	86 ± 8	85 ± 6	103 ± 9	136 ± 16	84 ± 8	103 ± 13
CC(C)C(=O)NCCn1c(=O)c2c(ncn2C)n(C)c1=O [Compound 17]	10 ± 3	1.5 ± 0.4	99 ± 6	0.5 ± 0.5	65 ± 5	79 ± 8	102 ± 12	145 ± 13	119 ± 12	163 ± 16	107 ± 11	142 ± 15
CC(C)NCCn1c(=O)c2c(ncn2C)n(C)c1=O [Compound 13, 1-(2-isopropylaminoethyl)-3,7-dimethylxanthine]	6 ± 2	1.8 ± 0.2	98 ± 5	0.3 ± 0.5	63 ± 7	87 ± 9	102 ± 12	121 ± 13	132 ± 13	172 ± 17	93 ± 9	143 ± 12
CCCC(=O)CCn1c(=O)c2c(ncn2C)n(C)c1=O [Compound 18, 1-(2-butyrylethyl)-3,7-dimethylxanthine]	9 ± 2	1.3 ± 0.4	91 ± 8	0.5 ± 0.3	54 ± 7	67 ± 8	98 ± 8	106 ± 11	131 ± 8	157 ± 15	117 ± 9	121 ± 13
CC(=O)CCn1c(=O)c2c(ncn2C)n(C)c1=O [Compound 15, 1-(2-acetylethyl)-3,7-dimethylxanthine]	5 ± 4	1.6 ± 0.4	91 ± 7	0.6 ± 0.5	65 ± 7	65 ± 8	118 ± 18	171 ± 15	198 ± 18	218 ± 26	129 ± 9	132 ± 12
CCn1cnc2c1c(=O)n(C)c(=O)n2C [Compound 4, 1,3-dimethyl-7-ethylxanthine]	11 ± 2	1.4 ± 0.4	102 ± 8	0.6 ± 0.4	65 ± 7	79 ± 8	91 ± 8	118 ± 9	103 ± 9	142 ± 12	96 ± 9	105 ± 13
CC(=O)OCCn1c(=O)c2c(ncn2C)n(C)c1=O [Compound 8, 1-(acetic acid-2-ethyl)-3,7-dimethylxanthine]	5 ± 2	0.8 ± 0.4	92 ± 8	0.4 ± 0.5	68 ± 7	67 ± 8	95 ± 8	110 ± 13	122 ± 12	172 ± 16	98 ± 9	132 ± 13
CCn1c(=O)c2c(ncn2CC)n(C)c1=O [Compound 5, 1,7-diethyl-3-methylxanthine]	3 ± 1	0.4 ± 0.2	99 ± 5	0.7 ± 0.3	71 ± 7	73 ± 8	93 ± 8	109 ± 8	101 ± 8	136 ± 12	91 ± 9	105 ± 12
CCn1c(=O)c2ncn(C)c2n(C)c1=O [Compound 3, 1-ethyl-3,9-dimethylxanthine]	3 ± 2	0.5 ± 0.2	97 ± 4	0.6 ± 0.3	59 ± 7	67 ± 8	96 ± 8	102 ± 8	114 ± 11	152 ± 14	103 ± 9	113 ± 12
CC(C)n1c(=O)c2c(ncn2C)n(C)c1=O [Compound 2, 1-isopropyl-3,7-dimethylxanthine]	4 ± 2	0.6 ± 0.2	92 ± 8	0.3 ± 0.4	53 ± 7	59 ± 8	89 ± 8	98 ± 6	112 ± 10	142 ± 12	99 ± 9	112 ± 13

From patent publication US20260083743A1, “NUCLEOSIDE DERIVATIVE FOR PREVENTING AND TREATING INFLAMMATION AND APPLICATION THEREOF” (WEST CHINA HOSPITAL OF SICHUAN UNIVERSITY, priority 2019, published 2026)
